# Experimental data taken from patent US11440923B2, “Substituted macrocyclic indole derivatives” (Bayer Aktiengesellschaft, priority 2017, dated 2022).
# Where a name gives a salt, the structure may show the parent alone. Read-outs that look alike come from different tables or passages of the source.
# Assays:
# [1] = 11-membered ring
# [2] = system: SUDHL5 cells; test: Antiproliferation assay SUDHL5 (Assay 7); format: cell-based
# In short: (§1)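 Growth inhibition is determined from ATP luminescence (CellTiter-Glo) following 72 h incubation with compound. Time-zero cells are measured the same way for baseline, and IC50s are referenced to DMSO controls.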
# [3] = system: SUDHL10 cells; test: Induction of caspase-3/7 activity in SUDHL10 cells (Assay 4); format: cell-based
# In short: (§2)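 Caspase-3/7 activity measured in DLBCL lines after 3 h compound exposure at 37 °C, following overnight plating; Caspase-Glo 3/7 luminescence read after 1 h at 37 °C. Medium-only background subtracted, values normalized to mean of DMSO-treated cells.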
# [4] = system: SUDHL5 cells; test: Induction of caspase-3/7 activity in SUDHL5 cells (Assay 4); format: cell-based
# In short: as §2
# [5] = system: SNU-389 cells; test: Antiproliferation assay SNU-389 (Assay 7); format: cell-based; details: 72 h, read-out: Antiproli SNU-389 IC50
# Protocol: (§3) Assessment of the Anti-Proliferative Effect of Compounds in Different Cell Lines
# (§4) The impact of compounds on the proliferation of different cell lines was assessed using the CellTiter-Glo® Luminescent Cell Viability reagent from Promega (G7573).
# (§5) In parallel, cells were plated in a reference (day 0) plate for time zero determination. Cells were incubated in a humidified incubator at 37° C. overnight.
# (§6) Rim wells were excluded. The cells were incubated for 72 h hours in a humidified incubator at 37° C. The day 0 plate was measured by adding 30 μL/well of CTG solution (CellTiter-Glo® Luminescent Cell Viability reagent, Promega G7573) to time zero wells in the reference plate followed by a 10 minutes incubation and luminescence reading at 0.1 ms. using the PHERAstar FS microplate reader (BMG Labtech).
# (§7) After 72 h incubation, the treated plates were measured in the same way as the day 0 plate mentioned above. The Bella DRC Master Sheet was used to calculate IC50s, with CI=day 0 values and C0=DMSO control values.
# [6] = system: SUDHL5 cells; test: Induction of cytotoxicity in SUDHL5 cells (Assay 6); format: cell-based; details: 5 h, CellTiter-Glo; read-out: Cytotox SUDHL5 IC50 (median)
# In short: (§8)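 Overnight seeding, 37 °C; 5 h compound exposure; CellTiter-Glo, 15 min RT shake; luminescence read. No-cell medium control.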
# [7] = system: SNU-16 cells; test: Antiproliferation assay SNU-16 (Assay 7); format: cell-based; details: Homo sapiens, read-out: Antiproli SNU-16 IC50 median
# Protocol: as §3, §4, §5, §6, §7
# [8] = system: HMC-1-8 cells; test: Antiproliferation assay HMC-1-8 (Assay 7); format: cell-based
# In short: as §1
# [9] = system: AMO-1 cells; test: Antiproliferation assay AMO-1 (Assay 7); format: cell-based
# In short: as §1
# [10] = system: A-431 cells; test: Antiproliferation assay A-431 (Assay 7); format: cell-based; details: Homo sapiens, read-out: Antiproli A-431 IC50 median
# Protocol: as §3, §4, §5, §6, §7
# [11] = target: MCL-1 (Homo sapiens (Human), UniProt Q07820, K194A/K197A/R201A); test: Protein-protein interaction assay MCL-1/Noxa BH3 peptide (MCL-1 assay, TR-FRET); format: binding; details: MCL-1 Assay IC50 (median)
# Sequence of MCL-1 (Q07820 whole entry, looked up, stated change not applied, the tested form may be a part): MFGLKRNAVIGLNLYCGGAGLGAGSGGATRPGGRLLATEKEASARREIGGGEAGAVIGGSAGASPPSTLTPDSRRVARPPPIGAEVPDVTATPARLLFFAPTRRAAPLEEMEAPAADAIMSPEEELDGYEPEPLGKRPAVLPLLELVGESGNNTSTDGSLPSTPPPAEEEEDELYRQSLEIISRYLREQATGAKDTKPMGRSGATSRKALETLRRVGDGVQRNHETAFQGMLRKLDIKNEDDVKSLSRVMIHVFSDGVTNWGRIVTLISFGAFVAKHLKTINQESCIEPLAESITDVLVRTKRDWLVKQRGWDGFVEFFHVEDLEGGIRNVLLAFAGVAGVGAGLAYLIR
# Protocol: The dose-dependent inhibition by the compounds described in this invention of the interaction between MCL-1 and the BH3 domain of Noxa (both human) was determined using a steady state binding competition assay with time-resolved fluorescence energy transfer (TR-FRET) readout. For that purpose MCL-1 (amino acids 173-321, N-terminal fused to Maltose Binding Protein (MBP) SEQ ID 1)) and a synthetic Noxa BH3-derived peptide of sequence Biotin-PEG2-PEG2-PAELEVE-Nva-[…]-amide (SEQ ID 2) served as protein receptor and tracer ligand respectively. The MBP-MCL-1 was purchased from Beryllium (Bedford, Mass., USA). The expression and purification of this protein construct has been described elsewhere (DOI:10.1371/journal.pone.0125010). The Noxa BH3-derived peptide can be obtained from e.g. Biosyntan (Berlin, Germany).
# For that, 100-fold concentrated DMSO solutions were prepared by serial dilutions (1:3.4) of a 2 mM stock solution in a clear, 384-well microtiter plate (Greiner Bio-One, Frickenhausen, Germany). From there, 50 nl were transferred in a dark test plate (Greiner Bio-One, Frickenhausen, Germany). The assay was initiated by addition of 2 μL of a 2,5-fold concentrated MBP-MCL-1 solution (usually for a 1 nM end concentration in 5 μL reaction volume) in aqueous assay buffer [50 mM Tris/HCl pH 7, 100 mM sodium chloride (NaCl), 50 mM potassium fluoride (KF), 0.005% Tween-20, 2 mM DTT, 0.1% bovine gamma globulin (BGG)] to the compounds in the assay plate. This was followed by a 10-minute incubation step at 22° C. for pre-equilibration of the putative complex between MBP-MCL-1 and the compounds.
# The mixture was incubated in the dark for one hour at 22° C. and then overnight at 4° C. The formation of MCL-1/Noxa complexes was determined by measuring the resonance energy transfer of the anti-MBP-Eu-cryptate antibody to the streptavidin-XL665 present in the reaction.
# For that purpose, the fluorescence emission at 620 nm and 665 nm after excitation at 330-350 nm was measured in a TR-FRET measuring instrument, for instance a Rubystar or a Pherastar (both from BMG Lab Technologies, Offenburg, Germany) or a Viewlux (Perkin-Elmer). The ratio of the emission at 665 nm and at 622 nm was used as indicator of the amount of MCL-1/NOXA complexes present.
# The resulting data (ratio) were normalized, taking 0% inhibition as the mean value of control measurements (usually 32 data points) where all reagents were included. In this case 50 nl DMSO were used instead of compounds. […] IC50 values were determined by regression analysis based on a 4 parameter equation (minimum, maximum, IC50, Hill; Y=Max+(Min−Max)/(1+(X/IC50)^Hill) using the Screener Software (Genedata).
# [12] = system: SUDHL10 cells; test: Induction of cytotoxicity in SUDHL10 cells (Assay 6); format: cell-based; details: 5 h, CellTiter-Glo; read-out: Cytotox SUDHL10 IC50 (median)
# In short: as §8
# [13] = system: SK-MEL-2 cells; test: Antiproliferation assay SK-MEL-2 (Assay 7); format: cell-based; details: Homo sapiens, read-out: Antiproli SK-MEL-2 IC50 median
# Protocol: as §3, §4, §5, §6, §7
# [14] = system: DMS-114 cells; test: Antiproliferation assay DMS-114 (Assay 7); format: cell-based; details: Homo sapiens, read-out: Antiproli DM-S114 IC50 median
# Protocol: as §3, §4, §5, §6, §7
# [15] = system: PA-1 cells; test: Antiproliferation assay PA-1 (Assay 7); format: cell-based; details: Homo sapiens, read-out: Antiproli PA-1 IC50 median
# Protocol: as §3, §4, §5, §6, §7
# [16] = system: A2780 cells; test: Antiproliferation assay A2780 (Assay 7); format: cell-based; details: 72 h, CellTiter-Glo; read-out: Antiproli A2780 IC50 median
# Protocol: as §3, §4, §5, §6, §7
# [17] = system: MV-4-11 cells; test: Antiproliferation assay MV-4-11 (Assay 7); format: cell-based; details: 72 h, CellTiter-Glo; read-out: Antiproli MV-4-11 IC50 median
# Protocol: as §3, §4, §5, §6, §7
# [18] = 72 h, CellTiter-Glo; read-out: Antiproli HMC-1-8 IC50 median
# [19] = 72 h, CellTiter-Glo; read-out: Antiproli AMO-1 IC50 median
molecule,measurement,setting,value
CCOC(=O)c1c(CCCOc2cccc3cc(F)ccc23)c2ccc(Cl)c3c2n1CCC(F)(F)COC(CCN1CCOCC1)c1nn(C)c(CC)c1-3 (centres unmarked),"ring closure, isolated yield","[1]; from CCOC(=O)c1[nH]c2c(-c3c(C(CCN4CCOCC4)OCC(F)(F)CCO)nn(C)c3CC)c(Cl)ccc2c1CCCOc1cccc2cc(F)ccc12, amine bond, PPh3/DTBAD, THF, 22.5 mM",83%
CCOC(=O)c1[nH]c2c(-c3c(C(O)C4CC4)nn(C)c3CC)c(Cl)ccc2c1CCCOc1cccc2cc(F)ccc12 (racemic),"ring closure, isolated yield","[1]; the molecule shown is the open-chain precursor, crosslinker bond, (Z)-1,4-dichlorobut-2-ene/Cs2CO3/NaI, MeCN, 197.0 mM, 70.0 °C",59%
CCOC(=O)c1[nH]c2c(-c3c(C(O)CCN4CCOCC4)nn(C)c3CC)c(F)ccc2c1CCCOc1cccc2ccccc12 (racemic),"ring closure, isolated yield","[1]; the molecule shown is the open-chain precursor, crosslinker bond, (Z)-1,4-dichlorobut-2-ene/Cs2CO3/NaI, MeCN, 98.0 mM, […]",50%
"CCc1c2c(nn1C)C(CCCN1CCOCC1)OCCCCn1c(C(=O)O)c(CCCOc3cccc4cc(F)ccc34)c3ccc(Cl)c-2c31 (single isomer, unassigned; enantiomer 1) [Example 66, (+)-4-chloro-3-ethyl-7-{3-[(6-fluoronaphthalen-1-yl)oxy]propyl}-2-methyl-15-[3-(morpholin-4-yl)propyl]-2,10,11,12,13,15-hexahydropyrazolo[4′,3′:9,10][1,6]oxazacycloundecino[8,7,6-hi]indole-8-carboxylic Acid (Enantiomer 1)]",IC50,"[2]; 72 h, CellTiter-Glo; read-out: Antiproli SUDHL5 IC50 (median)",93 nM
same,EC50,"[3]; caspase-3/7 induction, 3 h; read-out: Caspase SUDHL10 EC50 (median)",39 nM
same,EC50,"[4]; caspase-3/7 induction, 3 h; read-out: Caspase SUDHL5 EC50 (median)",83 nM
same,IC50,[5]; CellTiter-Glo,307 nM
same,IC50,[6],110 nM
same,IC50,"[7]; SNU-16, 72 h, CellTiter-Glo",1110 nM
same,IC50,[8]; [18],1160 nM
same,IC50,[9]; [19],28.5 nM
same,IC50,"[10]; A-431, 72 h, CellTiter-Glo",414 nM
same,IC50,[11],0.54 nM
same,IC50,[12],55 nM
same,IC50,"[13]; SK-MEL-2, 72 h, CellTiter-Glo",501 nM
same,IC50,"[14]; DMS-114 cells, 72 h, CellTiter-Glo",766 nM
same,IC50,"[15]; PA-1, 72 h, CellTiter-Glo",829 nM
"CCc1c2c(nn1C)C(CCN1CCN(C)CC1)OCCCCn1c(C(=O)O)c(CCCOc3cccc4cc(F)ccc34)c3ccc(Cl)c-2c31 (single isomer, unassigned; stereoisomer 1) [Example 69, (+)-4-chloro-3-ethyl-7-{3-[(6-fluoronaphthalen-1-yl)oxy]propyl}-2-methyl-15-[2-(4-methylpiperazin-1-yl)ethyl]-2,10,11,12,13,15-hexahydropyrazolo[4′,3′:9,10][1,6]oxazacycloundecino[8,7,6-hi]indole-8-carboxylic Acid—N-ethylethanamine Salt (Stereoisomer 1)]",IC50,"[2]; read-out: Antiproli SUDHL5 IC50 (median); 72 h, CellTiter-Glo",240 nM
same,EC50,"[3]; read-out: Caspase SUDHL10 EC50 (median); caspase-3/7 induction, 3 h",150 nM
same,EC50,"[4]; read-out: Caspase SUDHL5 EC50 (median); caspase-3/7 induction, 3 h",250 nM
same,IC50,[5],2410 nM
same,IC50,[6],310 nM
same,IC50,"[7]; SNU-16, 72 h",1490 nM
same,IC50,"[8]; read-out: Antiproli HMC-1-8 IC50 median; 72 h, CellTiter-Glo",4460 nM
same,IC50,"[9]; read-out: Antiproli AMO-1 IC50 median; 72 h, CellTiter-Glo",212 nM
same,IC50,"[10]; A-431, 72 h",1660 nM
same,IC50,[12],300 nM
same,IC50,"[13]; SK-MEL-2, 72 h",1810 nM
same,IC50,"[14]; DMS-114, 72 h",762 nM
same,IC50,"[15]; PA-1, 72 h",795 nM
Cc1c2c(nn1C)C(CCN1CCOCC1)OCCCCn1c(C(=O)O)c(CCCOc3cccc4ccccc34)c3cccc-2c31 (centres unmarked) [Example 06],IC50,[16],> 33000 nM
same,IC50,[17],22800 nM
Cc1c2c(nn1C)C(CCN1CCOCC1)OCCCCn1c(C(=O)O)c(CCCOc3cccc4ccccc34)c3ccc(F)c-2c31 (centres unmarked) [Example 07],IC50,[16],4080 nM
same,IC50,[17],183 nM
same,IC50,[8]; [18],1610 nM
same,IC50,[9]; [19],463 nM
"(rac)-ethyl 4-chloro-3-ethyl-7-{3-[(6-fluoronaphthalen-1-yl)oxy]propyl}-2-methyl-(15-rac)-[2-(4-methylpiperazin-1-yl)ethyl]-2,10,11,12,13,15-hexahydropyrazolo[4′,3′:9,10][1,6]oxazacycloundecino[8,7,6-hi]indole-8-carboxylate","ring closure, isolated yield","[1]; amine bond, PPh3/DTBAD, THF, 22.7 mM",49%
"ethyl (15-rac)-4-chloro-3-ethyl-15-[2-(3-rac-(fluoroazetidin-1-yl)ethyl]-7-{3-[(6-fluoronaphthalen-1-yl)oxy]propyl}-2-methyl-2,10,11,12,13,15-hexahydropyrazolo[4′,3′:9,10][1,6]oxazacycloundecino[8,7,6-hi]indole-8-carboxylate (Mixture of Stereoisomers)","ring closure, isolated yield","[1]; amine bond, PPh3/DTBAD, THF, 69.2 mM",77%
